Data taken from the supplement of paper PMC10307832.

Key:
Assay in all cases: relative viability (nuclei count vs DMSO), 5 days (fraction); higher = more cells survive
Metformin + Tozasertib = compound: CN(C)C(=N)NC(=N)N [Metformin] + Cc1cc(Nc2cc(N3CCN(C)CC3)nc(Sc3ccc(NC(=O)C4CC4)cc3)n2)n[nH]1 [Tozasertib] (partner 0.1 µM)
Summary of the method: (§1)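 Relative viability is defined as nuclei in treated wells over nuclei in vehicle wells. Duplicate plates were run and medians reported. Lung cancer cell lines in 1536-well plates were dosed by pin tool one day after seeding, with one drug or with a fixed anchor-drug dose plus five library-drug doses (not always all listed) in √10 steps, and nuclei were counted after 5 days.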

Metformin + Pictilisib = compound: CN(C)C(=N)NC(=N)N [Metformin] + CS(=O)(=O)N1CCN(Cc2cc3nc(-c4cccc5[nH]ncc45)nc(N4CCOCC4)c3s2)CC1 [Pictilisib] (partner 1 µM)
Summary of the method: as §1

Metformin + Trametinib = compound: CN(C)C(=N)NC(=N)N [Metformin] + CC(=O)Nc1cccc(-n2c(=O)n(C3CC3)c(=O)c3c(Nc4ccc(I)cc4F)n(C)c(=O)c(C)c32)c1 [Trametinib] (partner 0.02 µM)
Summary of the method: as §1

Metformin + Olaparib = compound: CN(C)C(=N)NC(=N)N [Metformin] + O=C(c1cc(Cc2n[nH]c(=O)c3ccccc23)ccc1F)N1CCN(C(=O)C2CC2)CC1 [Olaparib] (partner 8 µM)
Summary of the method: as §1

Metformin + Lapatinib = compound: CN(C)C(=N)NC(=N)N [Metformin] + CS(=O)(=O)CCNCc1ccc(-c2ccc3ncnc(Nc4ccc(OCc5cccc(F)c5)c(Cl)c4)c3c2)o1 [Lapatinib] (partner 2 µM)
Summary of the method: as §1

Cell Line: NCI-H460
- relative viability (Metformin + Tozasertib; first compound 31.62 µM): 0.59
- relative viability (Metformin + Tozasertib; first compound 100 µM): 0.645
- relative viability (Metformin + Tozasertib; first compound 316.23 µM): 0.187
- relative viability (Metformin + Tozasertib; first compound 1000 µM): 0.734
- relative viability (Metformin + Pictilisib; first compound 31.62 µM): 0.41
- relative viability (Metformin + Pictilisib; first compound 100 µM): 0.327
- relative viability (Metformin + Pictilisib; first compound 316.23 µM): 0.337
- relative viability (Metformin + Pictilisib; first compound 1000 µM): 0.401
- relative viability (Metformin + Trametinib; first compound 31.62 µM): 0.122
- relative viability (Metformin + Trametinib; first compound 100 µM): 0.136
- relative viability (Metformin + Trametinib; first compound 316.23 µM): 0.133
- relative viability (Metformin + Trametinib; first compound 1000 µM): 0.253
- relative viability (Metformin + Olaparib; first compound 31.62 µM): 0.412
- relative viability (Metformin + Olaparib; first compound 100 µM): 0.422
- relative viability (Metformin + Olaparib; first compound 316.23 µM): 0.294
- relative viability (Metformin + Olaparib; first compound 1000 µM): 0.262
- relative viability (Metformin + Lapatinib; first compound 31.62 µM): 1.15
- relative viability (Metformin + Lapatinib; first compound 100 µM): 0.9
- relative viability (Metformin + Lapatinib; first compound 316.23 µM): 0.849
- relative viability (Metformin + Lapatinib; first compound 1000 µM): 1.02
